In paper PMC4585840 (Scientific Reports, 2015):
pIC50, pKi: −log10 of the molar value.

Tests used:
RCasp6 [1] = molecular target: T1, RCasp6 (Homo sapiens, UniProt P55212); assay: in vitro fluorogenic Casp6 activity assay (Ac-VEID-AFC); type: biochemical; settings: 10 μM DTT; Fig. 1c
T1 construct: The zymogen is cleaved at three distinct sites to remove the prodomain and linker regions in order to obtain an active enzyme; His tag (C); made in house; host or cells: E. coli BL21 (DE3)pLysS
T1 sequence (P55212 24-179 limits assumed): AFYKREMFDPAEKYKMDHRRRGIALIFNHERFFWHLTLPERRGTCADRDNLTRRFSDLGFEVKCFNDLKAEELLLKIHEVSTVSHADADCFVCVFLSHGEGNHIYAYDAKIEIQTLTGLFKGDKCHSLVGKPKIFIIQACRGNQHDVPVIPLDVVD
T1 sequence (P55212 194-293 limits assumed): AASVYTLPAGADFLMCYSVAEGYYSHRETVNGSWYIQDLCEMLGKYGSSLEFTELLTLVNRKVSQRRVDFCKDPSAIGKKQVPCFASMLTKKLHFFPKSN

RCasp1 = molecular target: T2, RCasp1 (Homo sapiens, UniProt P29466); assay: in vitro fluorogenic Casp1 activity assay (z-YVAD-AFC); type: biochemical; settings: Fig. 1g
T2 construct: purchased Biovision
T2 sequence (P29466 120-404): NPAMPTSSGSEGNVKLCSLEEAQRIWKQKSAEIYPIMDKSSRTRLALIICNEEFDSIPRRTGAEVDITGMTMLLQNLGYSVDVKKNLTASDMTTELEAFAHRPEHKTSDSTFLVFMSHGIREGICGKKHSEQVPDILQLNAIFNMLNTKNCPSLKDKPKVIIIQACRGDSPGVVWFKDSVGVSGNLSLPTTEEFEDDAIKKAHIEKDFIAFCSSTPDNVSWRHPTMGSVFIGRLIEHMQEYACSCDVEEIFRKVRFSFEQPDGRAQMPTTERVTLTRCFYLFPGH
Description: (§1) Activity assays for RCasp1 (Biovision, Millpitas, CA, USA) and RCasp3 (Enzo Lifesciences) used Z-Tyr-Val-Ala-Asp-7-Amino-4-trifluoromethylcoumarin (z-YVAD-AFC: Enzo LifeSciences,), and Ac-Asp-Glu-Val-Asp-7-Amino-4-trifluoromethylcouramin (Ac-DEVD-AFC: Enzo LifeSciences), respectively. To confirm that these substrates report caspase activity and not proteasomal caspase-like enzyme activity, 1 μM pan-caspase inhibitor, Q-VD-OPh (Sigma-Aldrich) or 0.1 μM proteasome inhibitor, bortezomib (Calbiochem, MA, USA) were tested on 20 nM RCasp3 or 40–60 μg of mouse liver protein extracts.

RCasp6 [2] = molecular target: T1, RCasp6; assay: in vitro tubulin cleavage assay with RCasp6; type: biochemical; settings: 20 nM RCasp6, 10 μM DTT, 10 hours, western blot densitometry; read-out: IC50, cleavage of tubulin by RCasp6 (Tub∆Casp6 relative to total tubulin)
Description: Phenothiazines were mixed with 20 nM RCasp6 or RCasp3, 10 μM DTT, and 7.5 nM BSA in SB and 36 μg HCT116 protein extracts added before incubation at 37 °C for 10 hours, western blotting, and densitometry for tubulin-cleaved by Casp6 (Tub∆Casp6) and total tubulin as described in the western blot section. The IC50 was determined by a non-linear regression fit for log inhibitor vs caspase activity with a Hill slope of −1 using GraphPad Prism 5.0.
(§2) The 10630 (1:10,000) and GN60622 (1:10,000) neoepitope antibodies against the p20 subunit of active Casp6[16] and Tub∆Casp6[23], respectively, were generated in our laboratory. The β-actin clone AC-15 (1:5000, Sigma-Aldrich), Casp6 p10 clone B93-4 (1:250, BD Canada, Mississauga, ON, CA), Casp3, and full-length α-tubulin (1:1000, Cell Signaling Technology Inc., Danvers, MA, USA) antibodies were diluted in 5% non-fat dry milk in Tris-buffered saline containing 0.1% Tween-20 (Sigma-Aldrich). […] Secondary anti-mouse conjugated to alkaline phosphatase (Jackson Immunoresearch Laboratories Inc., West Grove, PA) was developed with nitro-blue tetrazolium (ThermoSci) and 5-bromo-4-chloro-3′-indolyphosphate (ThermoSci).

RCasp3 = molecular target: T3, RCasp3 (Homo sapiens, UniProt P42574); assay: in vitro tubulin cleavage assay with RCasp3; type: biochemical; settings: 20 nM RCasp3, 10 μM DTT, 10 hours, western blot densitometry; read-out: IC50 on RCasp3-cleaved tubulin
T3 construct: Active Casp6 and Casp3 represented >99% of the purified enzyme; purchased Enzo Lifesciences
T3 sequence (P42574 29-175 limits assumed): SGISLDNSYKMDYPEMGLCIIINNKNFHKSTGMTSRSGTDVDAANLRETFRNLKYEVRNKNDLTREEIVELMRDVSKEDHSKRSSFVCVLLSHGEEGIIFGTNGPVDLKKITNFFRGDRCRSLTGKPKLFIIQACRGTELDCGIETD
T3 sequence (P42574 176-277 limits assumed): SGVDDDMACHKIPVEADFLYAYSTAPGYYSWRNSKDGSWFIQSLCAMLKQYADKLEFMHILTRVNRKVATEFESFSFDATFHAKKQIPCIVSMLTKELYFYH

RCasp6 [3] = molecular target: T1, RCasp6; assay: inhibitor kinetic studies (Michaelis-Menten / Lineweaver-Burk) on RCasp6; type: biochemical; settings: competitive inhibition model, nonlinear regression, Ac-VEID-AFC substrate, 10 nM RCasp6
HCT116 cells = assay: cell viability (microscopy and MTT) in HCT116 cells; type: cell-based, human; settings: 2 hours
Description: (§3) HCT116 cells, plated at a density of 1 × 10^5 cells/well and human neurons, plated at a density of 6 × 10^6 cells/well on poly-L-lysine were treated with PBS or phenothiazines for 2 hours. The media was replaced before acquiring images with the Nikon Eclipse Ti microscope and the NIS-Elements (Version 3.10) software. MTT assays: Cells were plated in 96-well plates at 1 × 10^4 or 1 × 10^5 cells per well for 24 hours before treatments with phenothiazines or PBS. After 2 hours, fresh media containing […] MTT (3-(4,5-dimethylthiazol-2-yl)-2,5-diphenyltetrazolium bromide) (Sigma-Aldrich) was added and the cells were incubated for 4 hours at 37 °C in 5% CO2. The media was removed, formazan crystals were dissolved in DMSO, and the absorbance was measured at 560 nm and 670 nm using the BioTek Synergy H4 plate reader.

human primary neurons = assay: cell viability (microscopy) in human primary neurons; type: cell-based; settings: phase contrast microscopy, 2 hours
Description: as §3

Casp6 = molecular target: T4, Casp6 (Homo sapiens, UniProt P55212); assay: Casp6 activity in Casp6p20p10-transfected HCT116 cells; type: cell-based; design: for active Casp6p20 subunit (p20), full length Casp6 lacking its pro-domain; Casp6p20p10 (p20p10); expressed in transfected cells; host or cells: HCT116 human colon carcinoma cells; settings: transfected HCT116, 2 hrs; 100 μM and 1 mM methylene blue, 50 μM azure A, 10 μM and 100 μM azure B
T4 sequence (P55212 24-179 limits assumed): T1 sequence (P55212 24-179 limits assumed)
T4 sequence (P55212 194-293 limits assumed): T1 sequence (P55212 194-293 limits assumed)
Description: as §1
Human colon carcinoma (HCT116) cells, cultured as recommended (ATCC: Manassas, VA, USA), were transfected with 1 μg pCep4βCasp6p20p10 and 8 μg polyethyleneimine (Polysciences Inc., Warrington, PA, USA), and grown 24 hrs before treatment with PBS and phenothiazines for 2 hours. Human primary neurons were cultured from fetal brain cortical areas obtained under ethical guidelines and approved by the McGill University’s institutional review board as previously described. Human primary neurons plated in poly-L-lysine -coated 6-well plates at a density of 3 × 10^6 cells/mL were serum-deprived for 2 hours in the presence of phenothiazines or an equivalent volume of PBS. Proteins were harvested in cell lysis buffer (CLB; 50mM HEPES, 0.1% CHAPS, 0.1mM EDTA).
as §2

concentration at which reduction in Casp6 activity was observed (RCasp6 [1]): 100 pM
inhibition of RCasp1 in the fluorogenic assay (RCasp1): dose dependent inhibition
pIC50 (RCasp6 [2]): 4.97
pIC50 (RCasp3): 4.85
pKi (RCasp6 [3]): 4.30
Casp6 activity on the Ac-VEID-AFC peptide substrate (Casp6): significantly inhibited
Structure (SMILES): CN(C)c1ccc2nc3ccc(=[N+](C)C)cc-3sc2c1 [methylene blue, [7-(dimethylamino)phenothiazin-3-ylidene]-dimethylazanium;chloride]
concentration that decreased MTT absorbance to almost nothing (toxicity) (HCT116 cells; HCT116, MTT assay): 10000 µM
concentration up to which MTT absorbance was similar to PBS-treated cells (HCT116 cells; HCT116, MTT assay): up to 1 mM
concentration at which cells retained morphology and confluence comparable to PBS-treated controls (HCT116 cells; HCT116, phase contrast microscopy): 100 μM
concentration above which cell body size and axonal fragmentation increased (human primary neurons): above 100 μM
